# From patent US10472364B2 (Calithera Biosciences, Inc., priority 2016, dated 2019)
# Target: endogenous, cell-bound CD73 on SK-MEL-28 cells (Homo sapiens (Human), UniProt P21589)
# Experiment: Inhibition of endogenous, cell-bound CD73 enzyme activity in SK-MEL-28 cells (Malachite Green)
# Assay type: cell-based
# Settings: 100 μM AMP, 30 minutes at room temperature
# Method: The day before the experiment, 5000 cells were plated per well in a 96-well plate. Cells were washed twice with […] reaction buffer (20 mM HEPES, pH 7.4, 125 mM NaCl, 1 mM KCl, 2 mM MgCl2, 10 mM glucose) to remove residual inorganic phosphate. After washing, assays contained serial dilutions of test compounds and 100 μM of AMP in a total volume of 200 μL reaction buffer, with a final DMSO concentration≤0.5%. After 30 minutes at room temperature, supernatant was removed from the cells. […] The concentration of inorganic phosphate was determined using a phosphate standard curve to determine IC50.
# endogenous, cell-bound CD73 on SK-MEL-28 cells, sequence (P21589 27-574): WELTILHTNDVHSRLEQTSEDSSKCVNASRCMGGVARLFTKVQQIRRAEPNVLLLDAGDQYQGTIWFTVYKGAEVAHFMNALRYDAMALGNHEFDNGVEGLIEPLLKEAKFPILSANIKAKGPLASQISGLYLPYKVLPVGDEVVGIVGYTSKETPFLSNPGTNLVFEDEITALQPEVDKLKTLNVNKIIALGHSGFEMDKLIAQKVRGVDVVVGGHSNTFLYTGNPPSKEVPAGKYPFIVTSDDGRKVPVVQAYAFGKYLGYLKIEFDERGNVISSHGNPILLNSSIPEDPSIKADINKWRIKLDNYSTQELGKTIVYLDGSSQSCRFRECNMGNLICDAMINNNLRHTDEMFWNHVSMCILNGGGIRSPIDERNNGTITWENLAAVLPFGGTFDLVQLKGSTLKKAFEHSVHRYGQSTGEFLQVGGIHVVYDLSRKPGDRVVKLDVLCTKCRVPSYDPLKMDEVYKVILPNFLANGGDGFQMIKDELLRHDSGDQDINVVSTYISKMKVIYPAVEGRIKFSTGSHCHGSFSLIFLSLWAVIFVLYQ
row,IC50 [nM],SMILES
1,1240,"Cn1nc(CC(OC[C@H]2O[C@@H](n3cnc4c(N)nc(Cl)nc43)[C@@H](F)[C@@H]2O)(C(=O)O)C(=O)O)cc1C(=O)O [compound 73, 2-(((2R,3R,4S,5R)-5-(6-amino-2-chloro-9H-purin-9-yl)-4-fluoro-3-hydroxytetrahydrofuran-2-yl)methoxy)-2-((5-carboxy-1-methyl-1H-pyrazol-3-yl)methyl)malonic acid]"
2,257,"Nc1nc(Cl)nc2c1ncn2[C@@H]1O[C@H](COC(Cc2ccc(C(=O)O)cc2)(C(=O)O)C(=O)O)[C@@H](O)[C@@H]1F [compound 7, 2-(((2R,3R,4S,5R)-5-(6-amino-2-chloro-9H-purin-9-yl)-4-fluoro-3-hydroxytetrahydro-furan-2-yl)methoxy)-2-(4-carboxybenzyl)-malonic acid]"
3,598,"CCOC(=O)C(Cc1ccc(OC(F)(F)F)cc1)(OC[C@H]1O[C@@H](n2cnc3c(N)nc(Cl)nc32)[C@@H](F)[C@@H]1O)C(=O)O (single isomer, unassigned) [compound 37]"
4,443,"Nc1nc(Cl)nc2c1ncn2[C@@H]1O[C@H](COC(Cc2ccc3oc(C(=O)O)cc3c2)(C(=O)O)C(=O)O)[C@@H](O)[C@@H]1F [compound 88, 2-(((2R,3R,4S,5R)-5-(6-amino-2-chloro-9H-purin-9-yl)-4-fluoro-3-hydroxytetrahydro-furan-2-yl)methoxy)-2-((2-carboxybenzofuran-5-yl)methyl)malonic acid]"
5,510,"CS(=O)(=O)c1ccc(CC(OC[C@H]2O[C@@H](n3cnc4c(N)nc(Cl)nc43)[C@@H](F)[C@@H]2O)(C(=O)O)C(=O)O)cc1 [compound 21, 2-(((2R,3R,4S,5R)-5-(6-amino-2-chloro-9H-purin-9-yl)-4-fluoro-3-hydroxytetrahydrofuran-2-yl)methoxy)-2-(4-(methylsulfonyl)benzyl)malonic acid]"
6,261,N#Cc1cccc(CC(OC[C@H]2O[C@@H](n3cnc4c(N)nc(Cl)nc43)[C@@H](F)[C@@H]2O)(C(=O)O)C(=O)O)c1 [compound 35]
7,1140,CN(C)C(=O)c1cccc(CC(OC[C@H]2O[C@@H](n3cnc4c(N)nc(Cl)nc43)[C@@H](F)[C@@H]2O)(C(=O)O)C(=O)O)c1 [compound 22]
8,973,"Nc1nc(Cl)nc2c1ncn2[C@@H]1O[C@H](COC(Cc2ccc(-c3nnn[nH]3)cc2)(C(=O)O)C(=O)O)[C@@H](O)[C@@H]1F [compound 54, 2-(4-(1H-tetrazol-5-yl)benzyl)-2-(((2R,3R,4S,5R)-5-(6-amino-2-chloro-9H-purin-9-yl)-4-fluoro-3-hydroxytetrahydro-furan-2-yl)methoxy)malonic acid]"
9,9920,[N-]=[N+]=Nc1nc(N)c2ncn([C@@H]3O[C@H](COC(Cc4cccc(-c5nnn[nH]5)c4)(C(=O)O)C(=O)O)[C@@H](O)[C@@H]3F)c2n1 [compound 43]
10,611,"Nc1nc(Cl)nc2c1ncn2[C@@H]1O[C@H](COC(Cc2ccc(C(F)(F)F)cc2)(C(=O)O)C(=O)O)[C@@H](O)[C@@H]1F [compound 20, 2-(((2R,3R,4S,5R)-5-(6-amino-2-chloro-9H-purin-9-yl)-4-fluoro-3-hydroxytetrahydrofuran-2-yl)methoxy)-2-(4-(trifluoromethyl)benzyl)malonic acid]"
11,549,"Nc1nc(Cl)nc2c1ncn2[C@@H]1O[C@H](COC(Cc2ccc(C(=O)NCCC(=O)O)cc2)(C(=O)O)C(=O)O)[C@@H](O)[C@@H]1F [compound 87, 2-(((2R,3R,4S,5R)-5-(6-amino-2-chloro-9H-purin-9-yl)-4-fluoro-3-hydroxytetrahydro-furan-2-yl)methoxy)-2-(4-((2-carboxy-ethyl)carbamoyl)benzyl)malonic acid]"

# Target: recombinant CD73 (Homo sapiens (Human), UniProt P21589)
# Experiment: Inhibition of the CD73 enzyme in vitro (soluble recombinant CD73, Malachite Green)
# Assay type: biochemical
# Settings: recombinant CD73 0.5 nM, AMP 50 μM, 30 minutes at room temperature
# Method: The concentration of inorganic phosphate was determined using a phosphate standard curve.
# recombinant CD73, sequence (P21589 27-547): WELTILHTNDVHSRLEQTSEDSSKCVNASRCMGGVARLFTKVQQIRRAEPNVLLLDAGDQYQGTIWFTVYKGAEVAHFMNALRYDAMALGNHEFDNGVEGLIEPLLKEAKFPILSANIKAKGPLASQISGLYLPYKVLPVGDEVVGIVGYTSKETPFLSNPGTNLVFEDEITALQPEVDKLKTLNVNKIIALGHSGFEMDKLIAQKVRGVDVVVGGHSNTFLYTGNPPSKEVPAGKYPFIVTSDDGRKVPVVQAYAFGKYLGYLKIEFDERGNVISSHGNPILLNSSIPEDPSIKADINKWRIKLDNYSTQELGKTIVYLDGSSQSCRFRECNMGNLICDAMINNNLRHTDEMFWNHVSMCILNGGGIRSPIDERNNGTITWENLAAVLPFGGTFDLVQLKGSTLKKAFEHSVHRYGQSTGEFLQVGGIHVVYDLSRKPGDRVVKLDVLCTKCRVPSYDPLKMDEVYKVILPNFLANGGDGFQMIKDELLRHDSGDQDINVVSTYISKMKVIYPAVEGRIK
row,IC50 [nM],SMILES
1,8610,"Cn1nc(CC(OC[C@H]2O[C@@H](n3cnc4c(N)nc(Cl)nc43)[C@@H](F)[C@@H]2O)(C(=O)O)C(=O)O)cc1C(=O)O [compound 73, 2-(((2R,3R,4S,5R)-5-(6-amino-2-chloro-9H-purin-9-yl)-4-fluoro-3-hydroxytetrahydrofuran-2-yl)methoxy)-2-((5-carboxy-1-methyl-1H-pyrazol-3-yl)methyl)malonic acid]"
2,322,"COC(=O)c1ccc(CC(OC[C@H]2O[C@@H](n3cnc4c(N)nc(Cl)nc43)[C@@H](F)[C@@H]2O)(C(=O)O)C(=O)O)cc1 [compound 91, 2-(((2R,3R,4S,5R)-5-(6-amino-2-chloro-9H-purin-9-yl)-4-fluoro-3-hydroxytetrahydrofuran-2-yl)methoxy)-2-(4-(methoxycarbonyl)benzyl)malonic acid]"
3,> 50000,"Cc1cn([C@H]2C[C@H](O)[C@@H](COC(C(=O)O)C(=O)O)O2)c(=O)[nH]c1=O [compound 14, 2-(((2R,3S,5R)-3-hydroxy-5-(5-methyl-2,4-dioxo-3,4-dihydropyrimidin-1(2H)-yl)tetrahydrofuran-2-yl)methoxy)malonic acid]"
4,121,"Nc1nc(Cl)nc2c1ncn2[C@@H]1O[C@H](COC(Cc2ccc(C(=O)O)cc2)(C(=O)O)C(=O)O)[C@@H](O)[C@@H]1F [compound 7, 2-(((2R,3R,4S,5R)-5-(6-amino-2-chloro-9H-purin-9-yl)-4-fluoro-3-hydroxytetrahydro-furan-2-yl)methoxy)-2-(4-carboxybenzyl)-malonic acid]"
